Where two headings read alike, the source gives them in different places.
Key:
[1] = system: human breast cancer cell MDA-MB-468; test: MTT proliferation assay, MDA-MB-468; format: cell-based; conditions: Homo sapiens, MDA-MB-468, 168 h, 7 days, single agent, read-out: IC50, inhibition of proliferation of MDA-MB-468
Protocol: Determination of the Inhibitory Effect of the Compound of Example 2 and its Analogues on the Proliferation of Human Breast Cancer Cell MDA-MB-468 Using MTT Assay
The human breast cancer cells MDA-MB-468 were cultured in RPMI 1640 medium with 10% FBS and used at 90% confluence. The MDA-IVB-468 cells were digested with trypsinase and centrifuged at 800 rpm for 5 minutes. The supernatant was discarded and the cell pellets were resuspended with fresh medium and counted. Cells were seeded to 96-well cell culture plates with appropriate cell density and incubated overnight at 37° C., 5% CO2. […] 5 μL of solutions of each concentration was added to 120 μL of medium (diluted by 25 times) and mixed by shaking. The culture medium of cells cultured overnight was discarded and replaced with 195 μL/well of fresh medium (RPMI 1640+5% FBS) and 5 μL/well of diluted medium containing the test compound of corresponding concentrations (the final concentration of DMSO was 1%), and the culture plate was then returned to 5% CO2 incubator at 37° C. for 7 days (on the fourth day, dressing was changed once and culture was continued). On the day of experiment, culture medium was discarded and replaced with 100 μL/well of fresh serum-free DMEM medium containing MTT (0.5 mg/mL), and the culture was continued. After 4 hours, medium was discarded and replaced with 100 μL/well of DMSO, the plates were shaken for 10 minutes in darkness and the absorbance was measured at the wavelengths of 552 and 693 nm using a multi-function plate reader. Graph Pad Prism 6.0 was used to analyze the data. The inhibitory effects of compounds on cell proliferation were plotted based on cell viability vs. the logarithm of compound concentration. Cell viability %=(ODcompound−ODbackground)/(ODDMSO−ODbackground)×100.
Table 4 summarizes the inhibitory effect data (IC50) of some compounds on the proliferation of human breast cancer cell MDA-MB-468.

[2] = system: human colon cancer cell SW620; test: MTT proliferation assay in combination with CPT-11, SW620; format: cell-based; conditions: medium containing 205 nM CPT-11, 5 days, read-out: IC50, inhibition of proliferation of SW620 combined with CPT-11
Protocol: Determination of the Inhibitory Effect of the Compound of Example 2 and its Analogues in Combination with CPT-11 on the Proliferation of Human Colon Cancer Cell SW620 Using MTT Assay
The human colon cancer cells SW620 were cultured in RPMI 1640 medium with 10% FBS and used at about 90% confluence for experiments. The SW620 cells were digested with trypsinase and centrifuged at 800 rpm for 5 minutes. The supernatant was discarded and the cell pellets were resuspended with fresh medium (RPMI 1640+10% FBS). The cells were seeded into 96-well cell culture plates with appropriate cell density and incubated at 37° C. overnight in a 5% CO2 incubator. […] The first concentration was 1 μM or 0.333 μM, the last concentration was DMSO negative control (0 μM). 5 μL of solutions of each concentration was added to 120 μL of medium (a 25 times dilution) and mixed by shaking. The cells were cultured overnight and the culture medium was replaced with 195 μL/well of fresh medium containing 205 nM CPT-11 and 5 μL/well of medium containing the test compound (the final concentration of DMSO was 1%). The culture plates were returned to incubator and cultured at 37° C., 5% CO2 for 5 days. At the day of experiment, medium was discarded and replaced with 100 μL of fresh serum-free DMEM medium containing MTT (0.5 mg/mL), and the culture was continued. 4 hours later, the medium was discarded and replaced with 100 μL/well of DMSO, the plate was shaken for 10 minutes in dark and the absorbance was measured at the wavelengths of 552 and 690 nm using a multi-function plate reader. Data were analyzed by Graph Pad Prism 6.0. The inhibitory effects of compounds on cell proliferation were plotted based on cell viability vs. the logarithm of compound concentration. Cell viability %=(ODcompound−ODbackground)/(ODDMSO−ODbackground)×100.
Table 3 summarizes the inhibitory effect data (IC50) of some compounds combined with CPT-11 on the proliferation of human colon cancer cell SW620.

ATM kinase = molecular target: T1, ATM kinase (Homo sapiens, UniProt Q13315); test: In vitro ATM kinase assay (Cisbio HTRF, p53 substrate); format: biochemical; conditions: 30 μM ATP; for inhibition at 0.0001 µM: Conc. 0.1 nM; for inhibition at 0.0001 µM / inhibition at 0.001 µM / inhibition at 0.01 µM: read-out: Inh % (inhibitory effect on ATM kinase activity); for inhibition at 0.001 µM: Conc. 1 nM; for inhibition at 0.01 µM: Conc. 10 nM
T1 construct: purchased Eurofins 14-933
T1 sequence (Q13315 whole entry): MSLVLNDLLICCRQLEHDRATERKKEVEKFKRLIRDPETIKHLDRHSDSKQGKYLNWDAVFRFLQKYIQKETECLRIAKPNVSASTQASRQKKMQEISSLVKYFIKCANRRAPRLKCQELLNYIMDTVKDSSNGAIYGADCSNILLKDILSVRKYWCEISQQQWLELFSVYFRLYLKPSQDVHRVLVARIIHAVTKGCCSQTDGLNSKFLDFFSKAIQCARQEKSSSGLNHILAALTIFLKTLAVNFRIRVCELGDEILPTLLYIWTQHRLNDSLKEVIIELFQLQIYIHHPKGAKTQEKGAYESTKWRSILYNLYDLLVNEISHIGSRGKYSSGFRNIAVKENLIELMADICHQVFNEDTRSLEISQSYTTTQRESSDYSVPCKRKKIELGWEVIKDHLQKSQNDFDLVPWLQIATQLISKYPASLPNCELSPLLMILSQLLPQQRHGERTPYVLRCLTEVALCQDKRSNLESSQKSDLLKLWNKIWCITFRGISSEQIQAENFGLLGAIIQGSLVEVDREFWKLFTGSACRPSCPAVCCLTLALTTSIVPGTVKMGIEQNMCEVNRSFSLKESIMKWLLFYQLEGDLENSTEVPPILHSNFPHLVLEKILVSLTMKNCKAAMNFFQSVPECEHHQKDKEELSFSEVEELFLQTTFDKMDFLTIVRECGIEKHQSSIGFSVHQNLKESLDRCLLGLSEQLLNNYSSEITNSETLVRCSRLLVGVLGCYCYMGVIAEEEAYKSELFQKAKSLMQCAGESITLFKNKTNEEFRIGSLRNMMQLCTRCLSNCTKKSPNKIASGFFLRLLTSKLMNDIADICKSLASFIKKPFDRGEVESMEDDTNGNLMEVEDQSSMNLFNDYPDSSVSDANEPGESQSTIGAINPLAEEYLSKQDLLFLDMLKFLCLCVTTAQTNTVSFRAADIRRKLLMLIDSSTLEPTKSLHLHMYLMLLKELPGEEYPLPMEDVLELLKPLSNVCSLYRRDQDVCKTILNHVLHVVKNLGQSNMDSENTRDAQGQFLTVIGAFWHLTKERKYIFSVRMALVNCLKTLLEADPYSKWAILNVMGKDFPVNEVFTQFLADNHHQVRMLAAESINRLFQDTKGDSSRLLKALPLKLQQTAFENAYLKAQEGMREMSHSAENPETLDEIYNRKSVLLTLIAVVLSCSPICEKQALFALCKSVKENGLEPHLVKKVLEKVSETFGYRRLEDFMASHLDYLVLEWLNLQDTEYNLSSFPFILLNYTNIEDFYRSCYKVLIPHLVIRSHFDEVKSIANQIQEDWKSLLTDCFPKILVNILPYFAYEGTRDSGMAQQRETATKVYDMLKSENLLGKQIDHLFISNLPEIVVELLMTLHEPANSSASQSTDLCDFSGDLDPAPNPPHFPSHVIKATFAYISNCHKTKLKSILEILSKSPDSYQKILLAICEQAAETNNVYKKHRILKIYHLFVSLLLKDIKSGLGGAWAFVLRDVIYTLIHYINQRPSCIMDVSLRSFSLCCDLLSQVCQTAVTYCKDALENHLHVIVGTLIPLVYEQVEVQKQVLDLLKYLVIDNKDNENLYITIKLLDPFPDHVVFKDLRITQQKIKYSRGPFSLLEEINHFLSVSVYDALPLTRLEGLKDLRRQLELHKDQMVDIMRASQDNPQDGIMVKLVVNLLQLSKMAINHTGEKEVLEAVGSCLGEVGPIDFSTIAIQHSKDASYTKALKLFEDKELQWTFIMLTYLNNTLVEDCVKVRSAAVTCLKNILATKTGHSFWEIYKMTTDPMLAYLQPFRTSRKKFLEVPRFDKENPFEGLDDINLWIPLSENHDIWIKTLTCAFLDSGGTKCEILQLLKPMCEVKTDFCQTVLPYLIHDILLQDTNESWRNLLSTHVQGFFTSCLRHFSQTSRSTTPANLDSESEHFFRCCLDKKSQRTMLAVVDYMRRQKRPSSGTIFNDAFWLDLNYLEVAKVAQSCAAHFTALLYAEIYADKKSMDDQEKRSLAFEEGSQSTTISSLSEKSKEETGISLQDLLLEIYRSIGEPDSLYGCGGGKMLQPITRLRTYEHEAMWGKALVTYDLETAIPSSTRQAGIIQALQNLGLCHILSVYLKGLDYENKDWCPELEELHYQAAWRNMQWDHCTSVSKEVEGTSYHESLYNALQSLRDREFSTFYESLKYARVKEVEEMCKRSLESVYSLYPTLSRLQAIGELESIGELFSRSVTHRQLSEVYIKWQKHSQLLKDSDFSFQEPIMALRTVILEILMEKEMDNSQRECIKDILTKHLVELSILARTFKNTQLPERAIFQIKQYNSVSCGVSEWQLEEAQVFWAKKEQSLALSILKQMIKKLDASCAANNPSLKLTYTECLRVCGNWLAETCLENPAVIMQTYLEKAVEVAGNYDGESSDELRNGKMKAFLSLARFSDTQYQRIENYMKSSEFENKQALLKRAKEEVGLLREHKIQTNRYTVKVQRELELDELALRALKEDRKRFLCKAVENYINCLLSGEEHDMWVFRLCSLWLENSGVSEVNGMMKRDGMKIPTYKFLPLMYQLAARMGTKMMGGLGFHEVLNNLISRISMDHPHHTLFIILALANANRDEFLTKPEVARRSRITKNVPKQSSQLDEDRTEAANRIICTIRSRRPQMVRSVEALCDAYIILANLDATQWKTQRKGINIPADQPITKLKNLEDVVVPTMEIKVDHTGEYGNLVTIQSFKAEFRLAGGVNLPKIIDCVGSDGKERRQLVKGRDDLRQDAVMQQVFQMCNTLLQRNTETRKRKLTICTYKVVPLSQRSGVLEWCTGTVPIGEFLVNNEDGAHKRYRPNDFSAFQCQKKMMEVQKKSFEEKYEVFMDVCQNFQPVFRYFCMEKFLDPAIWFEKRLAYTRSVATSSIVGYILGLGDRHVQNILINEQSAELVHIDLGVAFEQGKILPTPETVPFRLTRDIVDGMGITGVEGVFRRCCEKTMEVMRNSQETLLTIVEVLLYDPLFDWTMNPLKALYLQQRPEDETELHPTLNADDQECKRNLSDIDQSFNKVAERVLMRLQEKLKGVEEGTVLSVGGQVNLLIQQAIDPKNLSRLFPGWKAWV
Protocol: Determination of the Inhibitory Effect In Vitro of the Compound of Example 2 and its Analogues on ATM Using In Vitro ATM Kinase Assay
ATM enzymatic activity was measured using Cisbio's HTRF reagent in a 384-well plate (Greiner, #784075). […] The mixtures were centrifuged at 1000 rpm for 1 minute, and reacted in dark for 30 minutes at room temperature. Then, 5 μL of EDTA termination solution (250 mm) was added to terminate the reaction. After 5 μL of detection mixture (Anti-phospho-p53 (ser15)-K (Cisbio, #61P08KAE, 0.084 ng/μL) and Anti-GST-d2 (Cisbio, #61GSTDLA, 5.00 ng/μL)) was finally added to each well, the mixtures were cultured at room temperature over night, and the fluorescence values at 665 nm and 615 nm were measured on Envision 2104. The final concentration of each reagent of the experiment was as follows: 12.5 mM HEPES (pH8.0), 0.5% glycerol, 0.005% Brij-35, 0.625 mM DTT, 0.0125% BSA, 15 nM p53, 0.25 ng/μL ATM, 30 μM ATP, 2.5 mM Mg(AcO)2, 2.5 mM MnCl2, 62.5 mM EDTA, 0.021 ng/μL Anti-phospho-p53, 1.25 ng/μL Anti-GST-d2.
Relative fluorescence ratio was calculated: Ratio665 nm/615 nm−Ratiobackground, and inhibition rate %=(1−(relative fluorescence ratio of test compound well−relative fluorescence ratio of positive control well)/(relative fluorescence ratio of negative control well−relative fluorescence ratio of positive control well))×100 was calculated. Data were analyzed using GraphPad Prism6.0 and fitted using the curve equation: Y=Bottom+(Top−Bottom)/(1+10^((Log IC50−X)*HillSlope)), and IC50 values were calculated.

SMILES	IC50 [1] [µM]	IC50 [2] [µM]	inhibition at 0.0001 µM (ATM kinase) [%]	inhibition at 0.001 µM (ATM kinase) [%]	inhibition at 0.01 µM (ATM kinase) [%]	IC50 ([2]; Homo sapiens, SW-620, 120 h) [µM]	IC50 (ATM kinase) [µM]
Cc1nc(C(C)C)n2c1cnc1ccc(-c3ccc(OCCCN4CCCCC4)nc3)cc12 [Example 22, 1-isopropyl-3-methyl-8-(6-(3-(piperidin-1-yl)propoxy)pyridin-3yl)imidazo[1,5-a]quinoxaline]	0.00991	0.0163	31	94	100	–	–
Cc1nc(C(C)C)n2c1cnc1ccc(-c3ccc(N4CCC(N(C)C)CC4)c(Cl)c3)cc12 [Example 25, N,N-dimethyl-1-(2-chloro-4-(1-isopropyl-3-methylimidazo[1,5-a]quinoxalin-8-yl)phenyl)piperidin-4-amine]	0.0733	0.0666	–	69	–	–	–
Cc1nc(C(C)C)n2c1cnc1ccc(-c3ccc(N4CCC(N(C)C)CC4)c(C(F)(F)F)c3)cc12 [Example 26, N,N-dimethyl-1-(4-(1-isopropyl-3-methylimidazo[1,5-a]quinoxalin-8-yl)-2-(trifluoromethyl)phenyl)piperidin-4-amine]	0.0486	0.051	–	54	–	–	–
Cc1nc(N2C[C@@H](C)O[C@@H](C)C2)n2c1cnc1ccc(-c3ccc(OCCCN4CCC4)nc3)cc12 [Example 31, (2S,6R)-4-(8-(6-(3-(azetidin-1-yl)propoxy)pyridin-3-yl)-3-methylimidazo[1,5-a]quinoxalin-1-yl)-2,6-dimethylmorpholine]	0.0092	–	–	–	–	0.0101	0.00062
Cc1nc(N2C[C@@H](C)O[C@@H](C)C2)n2c1cnc1ccc(-c3ccc(OCCCN4CCCCC4)nc3)cc12 [Example 33, (2S,6R)-2,6-dimethyl-4-(3-methyl-8-(6-(3-(piperidin-1-yl)propoxy)pyridin-3-yl)imidazo[1,5-a]quinoxalin-1-yl)morpholine]	0.0185	–	28	92	100	0.0183	0.0002
Cc1nc(N2C[C@@H](C)O[C@@H](C)C2)n2c1cnc1ccc(-c3ccc(OCCCN(C)C)c(C(F)(F)F)c3)cc12 [Example 37]	0.0249	0.0176	12	66	100	–	–
Cc1nc(N2C[C@@H](C)O[C@@H](C)C2)n2c1cnc1ccc(-c3ccc(N4CCC(N(C)C)CC4)nc3)cc12 [Example 38, 1-(5-(1-((2S,6R)-2,6-dimethylmorpholino)-3-methylimidazo[1,5-a]quinoxalin-8-yl)pyridin-2-yl)-N,N-dimethylpiperidin-4-amine]	0.0069	–	–	–	–	0.0087	0.0002
Cc1nc(N2C[C@@H](C)O[C@@H](C)C2)n2c1cnc1ccc(-c3ccc(N4CCC(N(C)C)CC4)c(F)c3)cc12 [Example 39, 1-(4-(1-((2S,6R)-2,6-dimethylmorpholino)-3-methylimidazo[1,5-a]quinoxalin-8-yl)-2-fluorophenyl)-N,N-dimethylpiperidin-4-amine]	0.0074	–	–	–	–	0.0073	0.0002
C[C@@H]1CN(c2ncc3cnc4ccc(-c5ccc(OCCCN(C)C)nc5)cc4n23)C[C@H](C)O1 [Example 43, 3-((5-(1-((2S,6R)-2,6-dimethylmorpholino)imidazo[1,5-a]quinoxalin-8-yl)pyridin-2-yl)oxy)-N,N-dimethylpropan-1-amine]	0.0167	–	–	–	–	0.0179	0.00041

Next, values leading:

IC50 [1] [µM]	IC50 [2] [µM]	inhibition at 0.0001 µM (ATM kinase) [%]	inhibition at 0.001 µM (ATM kinase) [%]	inhibition at 0.01 µM (ATM kinase) [%]	IC50 ([2]; Homo sapiens, SW-620, 120 h) [µM]	IC50 (ATM kinase) [µM]	SMILES
0.011	0.0208	30	84	98	–	–	Cc1nc(C(C)C)n2c1cnc1ccc(-c3ccc(N4CCC(N(C)C)CC4)c(F)c3)cc12 [Example 24, N,N-dimethyl-1-(2-fluoro-4-(1-isopropyl-3-methylimidazo[1,5-a]quinoxalin-8-yl)phenyl)piperidin-4-amine]
0.0076	–	–	–	–	0.0092	0.0001	Cc1nc(N2C[C@@H](C)O[C@@H](C)C2)n2c1cnc1ccc(-c3ccc(OCCCN4CCCC4)nc3)cc12 [Example 32, (2S,6R)-2,6-dimethyl-4-(3-methyl-8-(6-(3-(pyrrolidin-1-yl)propoxy)pyridin-3-yl)imidazo[1,5-a]quinoxalin-1-yl)morpholine]
0.0588	0.0726	–	40	–	–	–	Cc1nc(N2C[C@@H](C)O[C@@H](C)C2)n2c1cnc1ccc(-c3ccc(OCCN(C)C)nc3)cc12 [Example 36, 2-((5-(1-((2S,6R)-2,6-dimethylmorpholino)-3-methylimidazo[1,5-a]quinoxalin-8-yl)pyridin-2-yl)oxy)-N,N-dimethylethan-1-amine]
0.0065	–	–	–	–	0.0081	0.0002	Cc1nc(N2C[C@@H](C)O[C@@H](C)C2)n2c1cnc1ccc(-c3ccc(N4CCC(N(C)C)CC4)c(Cl)c3)cc12 [Example 40, 1-(2-chloro-4-(1-((2S,6R)-2,6-dimethylmorpholino)-3-methylimidazo[1,5-a]quinoxalin-8-yl)phenyl)-N,N-dimethylpiperidin-4-amine]
0.0426	–	–	–	–	0.0543	0.00015	CCc1nc(N2C[C@@H](C)O[C@@H](C)C2)n2c1cnc1ccc(-c3ccc(OCCCN(C)C)nc3)cc12 [Example 41, 3-((5-(1-((2S,6R)-2,6-dimethylmorpholino)-3-ethylimidazo[1,5-a]quinoxalin-8-yl)pyridin-2-yl)oxy)-N,N-dimethylpropan-1-amine]
0.0402	–	–	–	–	0.0469	0.00018	Cc1nc(N2C[C@@H](C)O[C@@H](C)C2)n2c1cnc1ccc(-c3ccc(NCCCN(C)C)nc3)cc12 [Example 46, N^1-(5-(1-((2S,6R)-2,6-dimethylmorpholino)-3-methylimidazo[1,5-a]quinoxalin-8-yl)pyridin-2-yl)-N^3,N^3-dimethylpropane-1,3-diamine]

Reference: patent publication US12653830B2, “Substituted imidazoquinoxaline compounds and uses thereof” (Impact Therapeutics (Shanghai), Inc, priority 2019, dated 2026)
